Columns and labels:
S. aureus ATCC 6538 = assay: BCT test (bacterial contact time), 60 s, log reduction / effect fraction; CI by Compusyn; type: cell-based, Staphylococcus aureus; settings: in 25% EtOH
Procedure: (§1) E. coli, S. aureus, P. aeruginosa, and S. enterica: Separate suspensions of the E. coli ATCC 10536 strain, S. aureus ATCC 6538 strain, Pseudomonas aeruginosa ATCC 15442 strain, and the Salmonella enterica ATCC 10708 strain were prepared as follows: Stock cultures (stored at −80° C.) were thawed and sub-cultured onto Tryptic Soy Agar (TSA) agar plate media, and incubated at 37° C. for 24 h to obtain single colonies. Single colonies of the primary cultures were streaked onto TSA plates and incubated at 37° for 24 h to generate secondary cultures. Single colonies of secondary cultures picked and used to inoculate into 50 mL of TSB broth. The inoculated TSB broth was incubated at 37° C. at 180 rpm for 18 h. Aliquots (0.5 ml) of the 18 h culture were inoculated into 50 ml of fresh TSB broth, and incubated at 37° C. at 180 rpm for 2-3 hours. When the OD600 nm value of the broth reached 1-2, cells were harvested by centrifugation at 5000 rpm for 10 min, and then resuspended in fresh TSB broth at a concentration of 1-5×10^8 CFU/mL. These suspensions were used as the bacterial suspensions for the BCT test.
(§2) BCT Test: Test compositions at a range of concentrations (either combinations of more than one perfume ingredient, and comparative compositions comprising the single perfume ingredients) were prepared in ethanol. Five replicates of each test composition were added into 96-well microtiter plates (120 μl per well), with row B containing control compositions containing the ethanol solution alone. 120 μl of bacterial cell suspensions at a concentration of approximately 1×10^8 bacteria per mL (as prepared above) were added to each well of the microtiter plate. The bacterial suspensions were incubated with the test solutions for 45, 60, or 120 seconds. Following the incubation of the bacterial suspensions with the test solutions, serial dilutions of the bacterial suspensions were generated (three serial 1:10 dilutions, followed by 17 serial 1:2 dilutions), in multiwell microtiter plates.
(§3) Each plate was sealed and incubated at 37° C. under agitation (180 rpm). After incubation, the turbidity of the wells (OD600 nm) was determined using a Tecan microplate reader. Turbid wells were regarded as positive growth, due to the presence of viable cells. The total number of viable cells (log CFU) for each sample was calculated. And the log reduction for each test composition at the final concentration (dose) was calculated against the control sample of the ethanol solution.
(§4) Determination of Synergy via the Combination Index (CI): The CI was calculated using Compusyn software (ComboSyn, Inc., as created by Dr. Dorothy Chou in 2005), according to the manufacturer's instructions. The concentration of each test composition (combinations of more than one perfume ingredient, and comparative compositions comprising the single perfume ingredients used to generate the combination) and their corresponding effect fraction was entered, and the corresponding CI calculated.
(§5) When the calculated CI values were less than 0.9, the combination of perfume ingredients was regarded as having synergistic effect. When the calculated CI was between 1.0 a 0.9, the combination of perfume ingredients was regarded as having an additive effect. When the calculated CI was greater than 1.0, the combination of perfume ingredients was regarded as having an antagonistic effect.

E. coli ATCC 10536 = assay: BCT test (bacterial contact time), 45 s, log reduction / effect fraction; CI by Compusyn; type: cell-based, Escherichia coli; settings: 45 s, in 20% EtOH
Procedure: as §1, §2, §3, §4, §5

[1] = test system: Pseudomonas aeruginosa ATCC 15442; assay: BCT test (bacterial contact time), 60 s, log reduction / effect fraction; CI by Compusyn; type: cell-based; settings: Pseudomonas aeruginosa, ATCC15442, 1 min, BCT 60 s, in 25% EtOH
Procedure: as §1, §2, §3, §4, §5

[2] = test system: Salmonella enterica ATCC 10708; assay: as above; type: cell-based; settings: BCT 60 s, in 25% EtOH
Procedure: as §1, §2, §3, §4, §5

## O=C/C=C/c1ccccc1 [Cinnamic aldehyde]
S. aureus ATCC 6538; Staphylococcus aureus, ATCC6538, 1 min, Dose 0.25 % w/v, BCT 60 s
  log reduction at 0.25 % strength: 0.3
S. aureus ATCC 6538; Staphylococcus aureus, ATCC6538, 1 min, Dose 0.3 % w/v, BCT 60 s
  log reduction at 0.3 % strength: 2.9
S. aureus ATCC 6538; Staphylococcus aureus, ATCC6538, 1 min, Dose 0.325 % w/v, BCT 60 s
  log reduction at 0.325 % strength: 4.2
S. aureus ATCC 6538; Staphylococcus aureus, ATCC6538, 1 min, Dose 0.35 % w/v, BCT 60 s
  log reduction at 0.35 % strength: 6.5
S. aureus ATCC 6538; Staphylococcus aureus, ATCC6538, 1 min, Dose 0.4 % w/v, BCT 60 s
  log reduction at 0.4 % strength: 7.1

## CCOC(=O)C=Cc1ccccc1 [Ethyl Cinnamate]
E. coli ATCC 10536; Escherichia coli, ATCC10536, 45 s, dose 0.030 % w/v
  log reduction at 0.03 % strength: 1
E. coli ATCC 10536; Escherichia coli, ATCC10536, 45 s, dose 0.035 % w/v
  log reduction at 0.035 % strength: 3.7
E. coli ATCC 10536; Escherichia coli, ATCC10536, 45 s, dose 0.040 % w/v
  log reduction at 0.04 % strength: 5.4
E. coli ATCC 10536; Escherichia coli, ATCC10536, 45 s, dose 0.045 % w/v
  log reduction at 0.045 % strength: 7.3

## OCCc1ccccc1 [PEA]
E. coli ATCC 10536; dose 0.650 % w/v
  Effect fraction: 0.00
  Log reduction: 0.0
E. coli ATCC 10536; dose 0.700 % w/v
  Effect fraction: 0.01
  Log reduction: 0.1
E. coli ATCC 10536; dose 0.750 % w/v
  Effect fraction: 0.11
  Log reduction: 0.8
E. coli ATCC 10536; dose 0.800 % w/v
  Effect fraction: 0.16
  Log reduction: 1.2
E. coli ATCC 10536; dose 0.850 % w/v
  Effect fraction: 0.60
  Log reduction: 4.3

## COc1ccc(C=O)cc1 [Aldehyde Anisic, 4-methoxybenzaldehyde]
E. coli ATCC 10536; Escherichia coli, ATCC10536, 45 s, dose 0.400 % w/v
  log reduction at 0.4 % strength: 0.3
E. coli ATCC 10536; Escherichia coli, ATCC10536, 45 s, dose 0.450 % w/v, read-out: Log reduction
  log reduction at 0.45 % strength: 0.6
E. coli ATCC 10536; Escherichia coli, ATCC10536, 45 s, dose 0.500 % w/v
  log reduction at 0.5 % strength: 2.7
E. coli ATCC 10536; Escherichia coli, ATCC10536, 45 s, dose 0.550 % w/v, read-out: Log reduction
  log reduction at 0.55 % strength: 6.7
E. coli ATCC 10536; Escherichia coli, ATCC10536, 45 s, dose 0.600 % w/v, read-out: Log reduction
  log reduction at 0.6 % strength: 7.3
S. aureus ATCC 6538; Staphylococcus aureus, ATCC6538, 1 min, dose 0.500 % w/v, 60 s, read-out: Log reduction
  log reduction at 0.5 % strength: 0.7
S. aureus ATCC 6538; Staphylococcus aureus, ATCC6538, 1 min, dose 0.600 % w/v, 60 s, read-out: Log reduction
  log reduction at 0.6 % strength: 2.3
S. aureus ATCC 6538; Staphylococcus aureus, ATCC6538, 1 min, dose 0.650 % w/v, 60 s
  log reduction at 0.65 % strength: 3.5
S. aureus ATCC 6538; Staphylococcus aureus, ATCC6538, 1 min, dose 0.700 % w/v, 60 s, read-out: Log reduction
  log reduction at 0.7 % strength: 5.9
S. aureus ATCC 6538; Staphylococcus aureus, ATCC6538, 1 min, dose 0.800 % w/v, 60 s
  log reduction at 0.8 % strength: 6.9
[1]; Dose 0.3 % w/v, read-out: Log reduction
  log reduction at 0.3 % strength: 0.6
[1]; Dose 0.35 % w/v
  log reduction at 0.35 % strength: 1.6
[1]; Dose 0.45 % w/v, read-out: Log reduction
  log reduction at 0.45 % strength: 6.2
[1]; Dose 0.475 % w/v
  log reduction at 0.475 % strength: 5.9
[1]; Dose 0.5 % w/v
  log reduction at 0.5 % strength: 7

## OC/C=C/c1ccccc1 [Cinnamic Alcohol Ord]
E. coli ATCC 10536; dose 0.200 % w/v
  Effect fraction: 0.00
  Log reduction: 0
E. coli ATCC 10536; dose 0.250 % w/v
  Effect fraction: 0.02
  Log reduction: 0.2
E. coli ATCC 10536; dose 0.300 % w/v
  Effect fraction: 0.17
  Log reduction: 1.3
E. coli ATCC 10536; dose 0.350 % w/v
  Effect fraction: 0.52
  Log reduction: 4.0
E. coli ATCC 10536; dose 0.400 % w/v
  Effect fraction: 1.00
  Log reduction: 7.6

## CC(=O)OC(C)c1ccccc1 (stereo not drawn) [Styrallyl Acetate]
E. coli ATCC 10536; dose 0.120 % w/v
  Effect fraction: 0.03
  Log reduction: 0.3
E. coli ATCC 10536; dose 0.140 % w/v
  Effect fraction: 0.09
  Log reduction: 0.7
E. coli ATCC 10536; dose 0.160 % w/v
  Effect fraction: 0.37
  Log reduction: 2.7
E. coli ATCC 10536; dose 0.200 % w/v
  Effect fraction: 1.00
  Log reduction: 7.4
E. coli ATCC 10536; dose […] w/v
  Effect fraction: 0.86
  Log reduction: 6.4

## CCC(CC(C)CC)=NO (stereo not drawn) [Stemone]
S. aureus ATCC 6538; Dose 0.1 % w/v, BCT 60 s
  Effect fraction: 0.050
  Log reduction: 0.4
S. aureus ATCC 6538; Dose 0.120 % w/v, BCT 60 s
  Effect fraction: 0.220
  Log reduction: 1.6
S. aureus ATCC 6538; Dose 0.140 % w/v, BCT 60 s
  Effect fraction: 0.660
  Log reduction: 4.8
S. aureus ATCC 6538; Dose 0.15 % w/v, BCT 60 s
  Effect fraction: 0.890
  Log reduction: 6.4
S. aureus ATCC 6538; Dose 0.160 % w/v, BCT 60 s
  Effect fraction: 1.000
  Log reduction: 7.2

## COc1ccc(C=O)cc1 [Aldehyde Anisique]
[2]; Dose 0.4 % w/v
  Effect fraction: 0.190
  Log reduction: 1.5
[2]; Dose 0.42 % w/v
  Effect fraction: 0.370
  Log reduction: 2.8
[2]; Dose 0.46 % w/v
  Effect fraction: 0.670
  Log reduction: 5.2
[2]; Dose 0.5 % w/v
  Effect fraction: 1.000
  Log reduction: 7.7

## COC(C)(C)CCCC(C)C=O (stereo not drawn) [Methoxymelonal]
S. aureus ATCC 6538; Dose 0.600 % w/v, BCT 60 s
  Effect fraction: 0.020
  Log reduction: 0.1
S. aureus ATCC 6538; Dose 0.800 % w/v, BCT 60 s
  Effect fraction: 0.110
  Log reduction: 0.8
S. aureus ATCC 6538; Dose 0.900 % w/v, BCT 60 s
  Effect fraction: 0.360
  Log reduction: 2.6
S. aureus ATCC 6538; Dose 1.000 % w/v, BCT 60 s
  Effect fraction: 0.700
  Log reduction: 5.1
S. aureus ATCC 6538; Dose 1.200 % w/v, BCT 60 s
  Effect fraction: 0.970
  Log reduction: 7.1

## OCc1ccccc1 [Benzyl alcohol]
E. coli ATCC 10536; Escherichia coli, ATCC10536, 45 s, dose 1.000 % w/v
  log reduction at 1 % strength: 0.2
E. coli ATCC 10536; Escherichia coli, ATCC10536, 45 s, dose 1.200 % w/v
  log reduction at 1.2 % strength: 2
E. coli ATCC 10536; Escherichia coli, ATCC10536, 45 s, dose 1.300 % w/v
  log reduction at 1.3 % strength: 4.3
E. coli ATCC 10536; Escherichia coli, ATCC10536, 45 s, dose 1.400 % w/v
  log reduction at 1.4 % strength: 5.9
E. coli ATCC 10536; Escherichia coli, ATCC10536, 45 s, dose 1.600 % w/v
  log reduction at 1.6 % strength: 7.3

Reference: US12419305B2, “Antimicrobial compositions” (Firmenich SA, priority 2018, dated 2025)
